Values quoted from earlier work in Sander's compilation of Henry's law constants.
Values joined by “and” are separate entries in the source; they are usually repeats but may differ in a detail not shown here. Equal entries are not always repeated. Values belong to the compound of their own block, whether it stands above or below them.

Test: Henry solubility constant Hcp at 298.15 K (mol/(m3 Pa))
Settings: cited value
[1] = reference: Burkholder et al. (2015)
[2] = reference: Burkholder et al. (2019)
[3] = reference: Sander et al. (2006)
[4] = reference: Sander et al. (2011)
[5] = reference: Barcelo and Hennion (1997)
[6] = reference: Fogg and Sangster (2003)
[7] = reference: Gaffney and Senum (1984)
[8] = reference: Murphy et al. (1983b)

SMILES: [O][Cl+][O-] [chlorine dioxide]
Henry solubility constant Hcp [1]: 0.01 | Henry solubility constant Hcp [2]: 0.01 | Henry solubility constant Hcp [3]: 0.01 | Henry solubility constant Hcp [4]: 0.01 | Henry solubility constant Hcp (reference: Young (1983)): 0.01

Henry solubility constant Hcp (reference: Brockbank (2013)): 0.11
SMILES: CC(=O)C(C)C [3-methyl-2-butanone]

SMILES: ClCCOCCCl [1,5-dichloro-3-oxapentane]
Henry solubility constant Hcp (reference: Brockbank (2013)): 0.48 | Henry solubility constant Hcp (reference: Goldstein (1982)): 0.46 and 0.47 | Henry solubility constant Hcp (reference: Harrison et al. (1993)): 0.37

SMILES: FC(F)Cl [chlorodifluoromethane]
Henry solubility constant Hcp [1]: 0.00035 | Henry solubility constant Hcp [2]: 0.00035 | Henry solubility constant Hcp [4]: 0.00034

SMILES: CC(C)N(C(=O)CCl)c1ccccc1 [propachlor]
Henry solubility constant Hcp [5]: 0.9

SMILES: CCC(C)(C)O [2-methyl-2-butanol]
Henry solubility constant Hcp (reference: Brockbank (2013)): 0.65

Henry solubility constant Hcp (reference: Brockbank (2013)): 94
SMILES: c1ccc2c(c1)[nH]c1ccccc12 [carbazole]

SMILES: [Hg+2].[OH-].[OH-] [mercury dihydroxide]
Henry solubility constant Hcp (reference: Lindqvist and Rodhe (1985)): 130 | Henry solubility constant Hcp (reference: WHO (1990)): 130

Henry solubility constant Hcp [6]: 0.00024
SMILES: FC(F)OC(Cl)C(F)(F)F (stereo unspecified) [1-chloro-2,2,2-trifluoroethyl difluoromethyl ether]

Henry solubility constant Hcp [6]: 0.00054
SMILES: C=COCC(F)(F)F [(2,2,2-trifluoroethoxy)-ethene]

SMILES: CCCCOC(=O)c1ccccc1C(=O)OCCCC [dibutyl phthalate]
Henry solubility constant Hcp (reference: Brockbank (2013)): 11 | Henry solubility constant Hcp (reference: McCarty (1980)): 0.16

SMILES: CCOP(=S)(OCC)SCSCC [phorate]
Henry solubility constant Hcp [5]: 0.015

SMILES: COC(=O)N(OC)c1ccccc1COc1ccn(-c2ccc(Cl)cc2)n1 [pyraclostrobine]
Henry solubility constant Hcp (reference: MacBean (2012b)): 190000

SMILES: O=S=O [sulfur dioxide]
Henry solubility constant Hcp (reference: Beilke and Gravenhorst (1978)): 0.012 | Henry solubility constant Hcp [1]: 0.013 | Henry solubility constant Hcp [2]: 0.013 | Henry solubility constant Hcp (reference: Edwards et al. (1978)): 0.012 | Henry solubility constant Hcp (reference: Maahs (1982)): 0.012 | Henry solubility constant Hcp (reference: Pandis and Seinfeld (1989)): 0.012 | Henry solubility constant Hcp (reference: Rodríguez-Sevilla et al. (2001)): 0.012 | Henry solubility constant Hcp [3]: 0.013 | Henry solubility constant Hcp [4]: 0.013 | Henry solubility constant Hcp (reference: Yoo et al. (1986)): 0.012 | Henry solubility constant Hcp (reference: Young (1983)): 0.013

SMILES: OCC(F)(F)C(F)F [2,2,3,3-tetrafluoro-1-propanol]
Henry solubility constant Hcp [1]: 1.4 | Henry solubility constant Hcp [2]: 1.4 | Henry solubility constant Hcp [4]: 1.4

SMILES: O=NN(c1ccccc1)c1ccccc1 [N-nitrosodiphenylamine]
Henry solubility constant Hcp (reference: Mackay et al. (1995)): 0.015

SMILES: COP(=O)(NC(C)=O)SC (stereo unspecified) [acephate]
Henry solubility constant Hcp [5]: 190000

Henry solubility constant Hcp (reference: Brockbank (2013)): 0.86 | Henry solubility constant Hcp (reference: Dohnal et al. (2006)): 1
SMILES: CCCCCO [1-pentanol]

SMILES: CCOC=O [ethyl methanoate]
Henry solubility constant Hcp (reference: Brockbank (2013)): 0.033 | Henry solubility constant Hcp [1]: 0.034 | Henry solubility constant Hcp [2]: 0.034 | Henry solubility constant Hcp [4]: 0.034

SMILES: COc1ccc(NC(=O)N(C)C)cc1Cl [metoxuron]
Henry solubility constant Hcp [5]: 6.6

Henry solubility constant Hcp (reference: Brockbank (2013)): 0.0016 | Henry solubility constant Hcp [6]: 0.0017
SMILES: Cc1ccc(C)c(C)c1 [1,2,4-trimethylbenzene]

SMILES: C=CC(C)=O [3-buten-2-one]
Henry solubility constant Hcp [1]: 0.4 | Henry solubility constant Hcp [2]: 0.4

SMILES: COC(=O)OC [carbonic acid, dimethyl ester]
Henry solubility constant Hcp (reference: Brockbank (2013)): 0.15 | Henry solubility constant Hcp [1]: 0.16 | Henry solubility constant Hcp [2]: 0.16

Henry solubility constant Hcp (reference: Brockbank (2013)): 0.026
SMILES: CC(=O)OCC(C)C [2-methylpropyl ethanoate]

SMILES: O=NCl [nitrosyl chloride]
Henry solubility constant Hcp [1]: > 0.00049 | Henry solubility constant Hcp [2]: > 0.00049

Henry solubility constant Hcp (reference: Brockbank (2013)): 0.017
SMILES: CCCCOC(=O)CCC [butyl butanoate]

SMILES: CCOP(=O)(SC(C)CC)N1CCSC1=O (stereo unspecified) [fosthiazate-1]
Henry solubility constant Hcp (reference: MacBean (2012b)): 75

SMILES: CCCCCCCBr [1-bromoheptane]
Henry solubility constant Hcp (reference: Brockbank (2013)): 0.00022

Henry solubility constant Hcp (reference: Brockbank (2013)): 0.3
SMILES: CC(C)(C)CO [2,2-dimethyl-1-propanol]

SMILES: Clc1cc(Cl)c(Cl)c(Cl)c1 [1,2,3,5-tetrachlorobenzene]
Henry solubility constant Hcp (reference: Meylan and Howard (1991)): 0.0063

Henry solubility constant Hcp (reference: Clever (1980)): 1.4e-05
SMILES: [Ar] [argon]

SMILES: Cc1cccc([N+](=O)[O-])c1 [3-nitrotoluene]
Henry solubility constant Hcp (reference: Brockbank (2013)): 0.27 | Henry solubility constant Hcp (reference: Goldstein (1982)): 0.14

SMILES: CC(C1CC1)C(O)(Cn1cncn1)c1ccc(Cl)cc1 (stereo unspecified) [cyproconazole]
Henry solubility constant Hcp [5]: 130

SMILES: CCOP(=S)(OCC)SCSP(=S)(OCC)OCC [ethion]
Henry solubility constant Hcp [5]: 0.31

Henry solubility constant Hcp (reference: Brockbank (2013)): 2.5
SMILES: CCCCOCCOCCOCCCC [diethylene glycol dibutyl ether]

SMILES: c1ccc2c(c1)cc1ccc3cccc4ccc2c1c34 [benzo[a]pyrene]
Henry solubility constant Hcp (reference: Brockbank (2013)): 4.5 | Henry solubility constant Hcp (reference: Goldstein (1982)): 0.0016

Henry solubility constant Hcp (reference: Mackay et al. (1992b)): 330
SMILES: c1cc2cccc3c4cccc5cccc(c(c1)c23)c54 [perylene]

SMILES: CC#N [ethanenitrile]
Henry solubility constant Hcp (reference: Arijs and Brasseur (1986)): 0.47 | Henry solubility constant Hcp (reference: Brockbank (2013)): 0.49 | Henry solubility constant Hcp [1]: 0.52 | Henry solubility constant Hcp [2]: 0.52 | Henry solubility constant Hcp [6]: 0.5 | Henry solubility constant Hcp [7]: 0.29 | Henry solubility constant Hcp (reference: Hine and Weimar (1965)): 0.29 | Henry solubility constant Hcp (reference: Plyasunov et al. (2006)): 0.38 | Henry solubility constant Hcp [3]: 0.52 | Henry solubility constant Hcp [4]: 0.52

SMILES: [CH3][Hg][CH3] [dimethylmercury]
Henry solubility constant Hcp (reference: Abraham et al. (2008)): 0.0021 | Henry solubility constant Hcp (reference: WHO (1990)): 0.0013

SMILES: c1ccc2c(c1)-c1cccc3cccc-2c13 [benzo[jk]fluorene]
Henry solubility constant Hcp (reference: Brockbank (2013)): 0.7 | Henry solubility constant Hcp [6]: 0.54 | Henry solubility constant Hcp (reference: Petrasek et al. (1983)): 0.99

SMILES: CON(C)C(=O)Nc1ccc(Cl)c(Cl)c1 [linuron]
Henry solubility constant Hcp [5]: 1.8 | Henry solubility constant Hcp (reference: MacBean (2012b)): 5000

Henry solubility constant Hcp (reference: Brockbank (2013)): 1.2
SMILES: O=C1CCCC1 [cyclopentanone]

Henry solubility constant Hcp (reference: Brockbank (2013)): 8.6e-06
SMILES: C=CCCCCCCCC [1-decene]

SMILES: FN(F)F [nitrogen trifluoride]
Henry solubility constant Hcp [1]: 7.9e-06 | Henry solubility constant Hcp [2]: 7.9e-06 | Henry solubility constant Hcp [4]: 7.9e-06

Henry solubility constant Hcp (reference: Brockbank (2013)): 0.025
SMILES: CCC(C)C=O (stereo unspecified) [2-methylbutanal]

Henry solubility constant Hcp (reference: Brockbank (2013)): 0.052
SMILES: CCC/C=C(/C=O)CC [2-ethyl-2-hexenal]

SMILES: Cc1cccc(C)c1 [1,3-dimethylbenzene]
Henry solubility constant Hcp (reference: Brockbank (2013)): 0.0015

Henry solubility constant Hcp (reference: Brockbank (2013)): 3.3e-06
SMILES: CC(C)C(C)C(C)C [2,3,4-trimethylpentane]

Henry solubility constant Hcp (reference: Brockbank (2013)): 0.39
SMILES: CCCCC(C)O (stereo unspecified) [2-hexanol]

SMILES: C=CC=O [propenal]
Henry solubility constant Hcp (reference: Brockbank (2013)): 0.072 | Henry solubility constant Hcp [7]: 0.081 | Henry solubility constant Hcp (reference: Goldstein (1982)): 0.1 | Henry solubility constant Hcp (reference: Howard (1989)): 2.2

SMILES: O=C(O)CCCC(=O)O [pentanedioic acid]
Henry solubility constant Hcp [1]: 3.8e+07 | Henry solubility constant Hcp [2]: 3.8e+07

SMILES: Clc1cc(Cl)c(-c2cc(Cl)c(Cl)cc2Cl)cc1Cl [2,2',4,4',5,5'-hexachlorobiphenyl]
Henry solubility constant Hcp [8]: 0.028

Henry solubility constant Hcp (reference: Howard and Meylan (1997)): 15
SMILES: c1ccc2[nH]ccc2c1 [indole]

SMILES: CC(C)C [2-methylpropane]
Henry solubility constant Hcp [1]: 9.1e-06 | Henry solubility constant Hcp [2]: 9.1e-06 | Henry solubility constant Hcp (reference: Hayduk (1986)): 9.1e-06 | Henry solubility constant Hcp [3]: 9.1e-06 | Henry solubility constant Hcp [4]: 9.1e-06

SMILES: CC(C)Br [2-bromopropane]
Henry solubility constant Hcp (reference: Brockbank (2013)): 0.0009

SMILES: CCCOC(=O)c1ccccc1C(=O)OCCC [dipropyl phthalate]
Henry solubility constant Hcp (reference: Brockbank (2013)): 22

Henry solubility constant Hcp (reference: Brockbank (2013)): 2
SMILES: O=COCc1ccccc1 [benzyl methanoate]

Henry solubility constant Hcp (reference: Clever (1979a)): 4.5e-06
SMILES: [Ne] [neon]

Henry solubility constant Hcp (reference: MacBean (2012b)): 1.5e+07
SMILES: CC(C)c1nn(C(=O)NC(C)(C)C)c(=O)n1N [amicarbazone]

Henry solubility constant Hcp (reference: Brockbank (2013)): 3100
SMILES: CN1CCCC1=O [N-methyl-2-pyrrolidone]

Henry solubility constant Hcp (reference: Brockbank (2013)): 0.0028
SMILES: CC(C)SC(C)C [di-(2-propyl)-sulfide]

SMILES: CCCl [chloroethane]
Henry solubility constant Hcp (reference: Brockbank (2013)): 0.00081 | Henry solubility constant Hcp [1]: 0.00083 | Henry solubility constant Hcp [2]: 0.00081 | Henry solubility constant Hcp (reference: Goldstein (1982)): 0.00068

SMILES: Clc1ccccc1-c1ccccc1Cl [2,2'-dichlorobiphenyl]
Henry solubility constant Hcp [8]: 0.045

Henry solubility constant Hcp (reference: Jacob (1986)): 0.25
SMILES: [OH] [hydroxyl radical]

Henry solubility constant Hcp (reference: Brockbank (2013)): 0.005
SMILES: CCOC(C)(C)CC [2-ethoxy-2-methylbutane]

SMILES: CN/C(=N\[N+](=O)[O-])NCc1cnc(Cl)s1 [clothianidin]
Henry solubility constant Hcp (reference: MacBean (2012b)): 3.4e+10

Henry solubility constant Hcp (reference: Brockbank (2013)): 2.3e-06
SMILES: CCCCCCCCC [nonane]

Henry solubility constant Hcp (reference: Brockbank (2013)): 3.2e-06
SMILES: CCCC(C)CC (stereo unspecified) [3-methylhexane]

SMILES: O=NO [nitrous acid]
Henry solubility constant Hcp (reference: Schwartz and White (1981)): 0.48

SMILES: N#Cc1c(Cl)cccc1Cl [2,6-dichlorobenzenenitrile]
Henry solubility constant Hcp [5]: 0.015

SMILES: O=COCC(F)(F)F [2,2,2-trifluoroethyl methanoate]
Henry solubility constant Hcp [1]: 0.0054 | Henry solubility constant Hcp [2]: 0.0054 | Henry solubility constant Hcp [4]: 0.0054

Henry solubility constant Hcp (reference: Brockbank (2013)): 0.051
SMILES: CCCCCCC(=O)CC [3-nonanone]

SMILES: CCCN(CCC)c1c([N+](=O)[O-])cc(C(F)(F)F)cc1[N+](=O)[O-] [trifluralin]
Henry solubility constant Hcp [5]: 0.0025 | Henry solubility constant Hcp (reference: HSDB (2015)): 0.096

SMILES: Brc1ccc(Oc2ccc(Br)cc2)cc1 [4,4'-dibromodiphenyl ether]
Henry solubility constant Hcp (reference: Wania and Dugani (2003)): 0.24
